Assays:
SH-SY5Y cells = assay: MAP2 and β3-tubulin immunoblotting / confocal microscopy; assay type: cell-based, human; settings: treated 24 h; actin loading control
Method: Cells were seeded onto 8-well chamber slides (Marienfeld Laboratory Glassware) at 5×10^4 cells/well overnight and were treated with 10% bacterial supernatant for 24 h. For differentiation, cells were treated with 10 nM RA for 5 days before treating with cell-free bacterial supernatant for 24 h. Afterwards, the cells were fixed with 4% paraformaldehyde in PBS for 20 minutes at room temperature (RT). Fixed cells were washed with PBS, and permeabilized with 1% Triton X-100 in PBS for 10 minutes. After washing with PBS, the slides were incubated with blocking buffer (4% BSA/PBS) for 1 h at RT before adding anti-MAP2 antibody or β3-tubulin (sc-74421 and sc-80005 respectively, Santa Cruz Biotechnology Inc) diluted in 1% BSA/PBS for 12 h at 4° C. They were then washed twice with PBS, followed by incubation with Alexa Flour 488 conjugated anti-mouse (Molecular Probes Inc) and Alexa Flour 594 conjugated Phalloidin (ab176757, Abcam) for 1 h at RT. […]
SH-SY5Y cells cultured under the indicated conditions described above, treated with MRx0005 and MRx0029 for 24 h and then lysed in RIPA buffer containing cocktail of protease inhibitors (Roche Diagnostics, UK). […] The blots were then incubated with the appropriate horseradish peroxidase (HRP)-conjugated secondary antibody, and proteins were detected by chemiluminescence detection kit (Pierce Biotechnology, Rockford, Ill.). […]

mouse Splenocytes = assay: Spleen cytokine assay ex vivo (LPS or ConA stimulation); assay type: in vivo
Method: Spleens were collected immediately in 5 mL RPMI media following sacrifice and cultured immediately. Spleen cells were first homogenised in this RPMI media, followed by 5 mins incubation with 1 ml of RBC lysis buffer (11814389001 ROCHE, Sigma). A further 10 ml of RPMI media was added, followed by 200G centrifugation for 5 mins. The supernatant was then filtered through 40 um strainer. Cells were counted and seeded (4,000,000/mL media). After 2.5 h of adaptation, cells were stimulated with lipopolysaccharide (LPS-2 μg/ml) or concanavalin A (ConA-2.5 μg/ml) for 24 h. Following stimulation, the supernatants were harvested to assess the cytokine release using Proinflammatory Panel 1 (mouse) V-PLEX Kit (Meso Scale Discovery, Maryland, USA) for TNFα, IL-10, IL-1β, Interferon γ, CXCL2 and IL6. The analyses were performed using MESO QuickPlex SQ 120, SECTOR Imager 2400, SECTOR Imager 6000, SECTOR S 600.
The ex-vivo splenocyte assay involves challenging the splenocytes (cells isolated from the spleen—a main organ involved in immune defense), with a bacterio- or viral-mimetic challenge.

[1] = test system: differentiated SHSY-5Y neuroblastoma cells; assay: ROS generated by TBHP (DCFDA fluorescence); assay type: cell-based, human; settings: 100 uM TBHP, 10% bacteria supernatant, 2 h
Method: SHSY-5Y cells were plated in black flat bottom 96 well plate at density of 5000 cells/well and placed in the CO2 incubator. After 24 h, media were replaced with differentiation medium (growth medium containing 1% FBS) and 10 μM retinoic acid. Differentiation medium was replaced every other day. On Day 10 the differentiation medium was removed and cells were washed with pre-warmed PBS and stained with 10 uM DCFDA molecular probe for 20 mins in growth medium containing 1% FBS. Then cells were washed with pre-warmed PBS again and treated with 100 uM TBHP in the presence or absence of 10% bacteria supernatant for 2 h. Fluorescence intensity was measured using TECAN plate reader at Ex/Em 485/530 nm.

## Megasphaera massiliensis [MRx0029]
SH-SY5Y cells
  level expression of MAP2 (immunoblot): increase
Mouse Splenocytes; challenge with LPS
  interleukin-6 in splenocytes: reduction
  interleukin-113 in splenocytes: reduction
  levels of interferon-γ in splenocytes: reduction
Mouse Splenocytes; splenocytes
  levels of the chemoattractant CXCL1: increase
[1]
  ROS production: inhibit
